These results are taken from ChEMBL document CHEMBL1136748, “A novel N-terminal cyclic dynorphin A analogue cyclo(N,5)[Trp(3),Trp(4),Glu(5)] dynorphin A-(1-11)NH(2) that lacks the basic N-terminus” (J Med Chem, 2003).

pKi: −log10 of the molar value. Where a SMILES comes first, the peptide text is derived from it. Bridges are numbered along the chain shown (N, C = ends). [ ]: non-standard residue; d: D form.

Common to all, as to format: cell-based
Assay [1] concerns the target Kappa-type opioid receptor (Rattus norvegicus) (UniProt P34975). Nature of the assay: Tested for maximum percentage inhibition against cloned rat Opioid receptor kappa 1 stably expressed in CHO cells by adenylyl cyclase assay.
For assay [2], the target named is Kappa-type opioid receptor (Cavia porcellus, UniProt P41144). Nature of the assay: Binding affinity towards Opioid receptor kappa 1 using [3H]diprenorphine as radioligand in Chinese hamster ovary cells expressing cloned opioid receptors.
For assay [3], the target named is Delta-type opioid receptor (Rattus norvegicus, UniProt P33533). Nature of the assay: Binding affinity towards Opioid receptor delta 1 using [3H]DPDPE as radioligand in Chinese hamster ovary cells expressing cloned opioid receptors.
For a further assay, the target named is Mu-type opioid receptor (Homo sapiens, UniProt P35372). Nature of the assay: Binding affinity towards Opioid receptor mu 1 using [3H]DAMGO as radioligand in Chinese hamster ovary cells expressing cloned opioid receptors.
Chain of Mu-type opioid receptor (P35372 whole entry): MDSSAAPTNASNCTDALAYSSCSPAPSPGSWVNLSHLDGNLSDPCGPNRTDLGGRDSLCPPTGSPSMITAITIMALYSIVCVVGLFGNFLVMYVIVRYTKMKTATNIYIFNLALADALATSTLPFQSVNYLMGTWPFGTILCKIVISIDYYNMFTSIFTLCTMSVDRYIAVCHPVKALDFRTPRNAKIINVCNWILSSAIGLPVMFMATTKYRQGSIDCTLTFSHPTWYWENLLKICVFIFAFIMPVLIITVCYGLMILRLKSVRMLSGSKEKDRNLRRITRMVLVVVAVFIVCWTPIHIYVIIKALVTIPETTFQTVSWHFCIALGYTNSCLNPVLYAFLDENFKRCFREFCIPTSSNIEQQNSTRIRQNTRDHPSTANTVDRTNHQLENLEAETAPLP

Chain of Kappa-type opioid receptor (P41144 whole entry): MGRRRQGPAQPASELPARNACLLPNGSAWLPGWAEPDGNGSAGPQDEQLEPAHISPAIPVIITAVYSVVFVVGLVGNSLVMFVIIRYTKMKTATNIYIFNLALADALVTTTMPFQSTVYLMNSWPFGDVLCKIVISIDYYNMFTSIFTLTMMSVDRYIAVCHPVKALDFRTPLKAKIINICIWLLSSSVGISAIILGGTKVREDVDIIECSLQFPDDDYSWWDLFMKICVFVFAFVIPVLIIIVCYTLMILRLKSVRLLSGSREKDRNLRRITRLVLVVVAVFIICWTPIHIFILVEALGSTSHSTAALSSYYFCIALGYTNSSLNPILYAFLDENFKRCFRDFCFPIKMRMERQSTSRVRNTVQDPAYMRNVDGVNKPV
Chain of Delta-type opioid receptor (P33533 whole entry): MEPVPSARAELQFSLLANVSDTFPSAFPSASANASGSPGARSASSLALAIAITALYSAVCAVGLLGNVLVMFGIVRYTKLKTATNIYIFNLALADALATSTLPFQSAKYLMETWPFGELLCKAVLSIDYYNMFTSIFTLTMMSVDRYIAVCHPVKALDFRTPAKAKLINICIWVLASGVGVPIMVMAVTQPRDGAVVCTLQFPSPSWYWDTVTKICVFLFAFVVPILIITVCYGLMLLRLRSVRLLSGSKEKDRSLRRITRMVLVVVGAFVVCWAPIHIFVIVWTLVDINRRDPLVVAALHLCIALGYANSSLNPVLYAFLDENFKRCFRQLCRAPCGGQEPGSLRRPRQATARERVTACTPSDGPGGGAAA
Chain of Kappa-type opioid receptor (Rattus norvegicus) (P34975 whole entry): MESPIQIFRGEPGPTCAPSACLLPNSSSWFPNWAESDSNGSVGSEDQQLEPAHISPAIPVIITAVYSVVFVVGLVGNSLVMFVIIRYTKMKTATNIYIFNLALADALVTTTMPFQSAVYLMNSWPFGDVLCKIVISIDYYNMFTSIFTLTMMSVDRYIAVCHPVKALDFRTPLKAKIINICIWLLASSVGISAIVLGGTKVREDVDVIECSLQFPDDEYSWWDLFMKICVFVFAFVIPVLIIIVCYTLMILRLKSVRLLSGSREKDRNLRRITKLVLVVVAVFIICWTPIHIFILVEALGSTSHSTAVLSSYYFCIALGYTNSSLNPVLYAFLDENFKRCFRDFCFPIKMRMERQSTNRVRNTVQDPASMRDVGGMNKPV

Compound `CC(=O)N[C@@H](Cc1ccc(O)cc1)C(=O)NCC(=O)N[C@@H](Cc1c[nH]c2ccccc12)C(=O)N[C@@H](Cc1c[nH]c2ccccc12)C(=O)N[C@@H](CC(C)C)C(=O)N[C@@H](CCCN=C(N)N)C(=O)N[C@@H](CCCN=C(N)N)C(=O)N[C@@H](C)C(=O)N[C@@H](CCCN=C(N)N)C(=O)N1CCC[C@H]1C(=O)N[C@@H](CCCCN)C(N)=O` gave an inhibition in assay [1] of 15%.

Regarding `CC[C@H](C)[C@H](NC(=O)[C@H](CCCN=C(N)N)NC(=O)[C@H](CCCN=C(N)N)NC(=O)[C@@H]1CCC(=O)N[C@@H](Cc2ccc(O)cc2)C(=O)NCC(=O)N[C@@H](Cc2c[nH]c3ccccc23)C(=O)N[C@@H](Cc2c[nH]c3ccccc23)C(=O)N1)C(=O)N[C@@H](CCCN=C(N)N)C(=O)N1CCC[C@@H]1C(=O)N[C@@H](CCCCN)C(=O)O`, in assay [1], the inhibition came to 8%.

Regarding `CC[C@H](C)[C@H](NC(=O)[C@H](CCCNC(=N)N)NC(=O)[C@H](CCCNC(=N)N)NC(=O)[C@@H]1CCC(=O)N[C@@H](Cc2ccc(O)cc2)C(=O)NCC(=O)N[C@@H](Cc2c[nH]c3ccccc23)C(=O)N[C@@H](Cc2c[nH]c3ccccc23)C(=O)N1)C(=O)N[C@@H](CCCNC(=N)N)C(=O)N1CCC[C@H]1C(=O)N[C@@H](CCCCN)C(N)=O` (YGWWERRIRPK-NH2; lactam N-5), the pKi was 7.57 in assay [2], below 5.05 in assay [3] and 6.48 at Mu-type opioid receptor.

Regarding `CC(=O)N[C@@H](Cc1ccc(O)cc1)C(=O)N[C@@H](CCCCN)C(=O)N[C@@H](Cc1c[nH]c2ccccc12)C(=O)N[C@@H](Cc1c[nH]c2ccccc12)C(=O)N[C@@H](CC(C)C)C(=O)N[C@@H](CCCN=C(N)N)C(=O)N[C@@H](CCCN=C(N)N)C(=O)N[C@H](C)C(=O)N[C@@H](CCCN=C(N)N)C(=O)N1CCC[C@H]1C(=O)N[C@@H](CCCCN)C(N)=O` [VENORPHIN] (Ac-YKWWLRR[dA]RPK-NH2), the negative-log Ki (pKi) in assay [2] was 7.70; in assay [3] it was 5.27.

With `CC(=O)N[C@@H](Cc1ccc(O)cc1)C(=O)NCC(=O)N[C@@H](Cc1c[nH]c2ccccc12)C(=O)N[C@@H](Cc1c[nH]c2ccccc12)C(=O)N[C@@H](CC(C)C)C(=O)N[C@@H](CCCN=C(N)N)C(=O)N[C@@H](CCCN=C(N)N)C(=O)N[C@H](C)C(=O)N[C@@H](CCCN=C(N)N)C(=O)N1CCC[C@H]1C(=O)N[C@@H](CCCCN)C(N)=O` [[GLY2]VENORPHIN], the pKi is 8.08 in assay [2], below 5.00 in assay [3] and 6.47 at Mu-type opioid receptor.

The compound Ac-YKWWLRRARPK-NH2 displayed an inhibition in assay [1] of 28%.
